# According to patent publication US20130150346A1, “Use of FAAH Inhibitors for Treating Parkinson's Disease and Restless Legs Syndrome” (Ironwood Pharmaceutical, Inc., priority 2010, published 2013):
# How the values were obtained:
# MPTP-lesioned macaques = test: Motor activity (total activity, high activity time and counts) in MPTP-lesioned macaques treated with URB597 and L-DOPA; type: in vivo, cynomolgus monkeys (Macaca fascicularis)
# MPTP-lesioned marmosets [1] = test: Motor activity (passive infra-red sensors: total activity, high activity counts and time) in MPTP-lesioned marmosets; type: in vivo, common marmosets (Callithrix jacchus)
# Method: (§1) Six common marmosets (Callithrix jacchus; female; weight, 350-500 g (Harlan, Madison, Wis., USA)) were kept under conditions of controlled temperature (25±2° C.) and a 12-hour light/dark cycle (lights on 6:30 a.m.). Animals were group housed and had access to food, fresh-fruit supplements and water ad libitum and their home cage environment was enriched with primate toys, perches and auditory stimuli. Prior to start of studies, animals were acclimatized to handling, blood collection and administration of treatments (oral syringe feeding and subcutaneous injection) as well as transfer to observation cages for assessment of behavior. A parkinsonian syndrome was induced by once-daily subcutaneous administration of MPTP hydrochloride (Sigma, Canada; 2 mg/kg base concentration in 0.9% saline) for 5 consecutive days. Following this, animals were allowed to recover for 12 weeks to allow parkinsonian symptoms to develop and stabilize. […] Treatment-related complications including dyskinesia and psychosis-like behaviors were evoked by twice-daily treatment with L-DOPA p.o. (as Prolopa®, Roche Canada, Ontario, equivalent to 15 mg/kg L-DOPA and 3.5 mg/kg benserazide) for a minimum of 30 days. […] Disord. 21:839-846; Visanji et al. (2008) Mov. Disord. 23:1922-1925; Visanji et al (2009) Neurobiol Dis. 35: 184-192]. After this time, the animals were used in several studies to evaluate potential anti-parkinsonian and anti-dyskinetic agents. A minimum period of two weeks was allowed between completing any prior study and commencing this study, a period in excess of ten half-lives since administration of any previously employed experimental drug. Throughout the course of the study, on days not requiring plasma sampling or behavioral observations, animals were treated once daily with oral L-DOPA therapy, given at 10:00 a.m. to maintain stable levels of complications. Marmosets treated with MPTP as described in this example are referred to as MPTP-lesioned marmosets.
# (§2) To assess the effect of treatment on plasma FAAH substrate level, total activity, high activity time and count, data were analyzed using a parametric repeated-measures (RM) 1-way analysis of variance (ANOVA) followed by a Student Newman-Keuls Multiple Comparison post hoc test. To assess the effect of treatment on plasma L-DOPA level a paired, two-tailed t-test was used. All FAAH (AEA, OEA, PEA) subbstrate and L-DOPA plasma level data and activity data are presented as the group mean and SEM For measures of parkinsonian disability, dyskinesia and psychosis, data were analyzed via Friedman's test with Dunn's Multiple Comparison post hoc test. […] In all cases, p<0.05 was taken to represent a significant difference.
# (§3) MPTP hydrochloride (Sigma, Canada) was dissolved in 0.9% NaCl sterile solution to a concentration of 0.2 mg/ml (freebase) and administered at 1 ml/kg. Maintenance L-DOPA, administered as Prolopa® capsules (Roche, Mississauga, ON, Canada) containing 50 mg L-DOPA and 12.5 mg benserazide (freebase) was dissolved in Gatorade sports beverage (The Gatorade Company, Chicago, Ill.) prior to oral administration by syringe at a volume of 10 ml/kg. On days of behavioral assessment, L-DOPA (20 mg/kg, freebase) was prepared from the methyl ester form (Sigma, Canada) in combination with benserazide hydrochloride (5 mg/kg, freebase, Sigma, Canada) dissolved in 0.9% sterile saline containing 0.1% ascorbate (Sigma, Canada) and 0.05% absolute ethanol. URB597 (Cayman Chemical, Ann Arbor, Mich.) was formulated in a vehicle containing 50% corn oil (Professional Compounding Centers of America (PCCA), Houston, Tex.) and 50% nutritional drink Ensure™ (Abbott Nutrition, Chicago, Ill.) to make the suspension palatable for marmoset oral dosing. Requisite amounts of URB597 were weighed into sterile 50 ml polypropylene tubes (for the 3, 10, 30 and 60 mg/kg doses, 12, 40, 120 and 240 mg were weighed respectively). Then, 10 ml Corn oil was added and mixed until homogenous.
# MPTP-lesioned marmosets [2] = test: Rating of parkinsonian disability, dyskinesia and psychosis in MPTP-lesioned marmosets; type: in vivo, common marmosets (Callithrix jacchus); settings: L-DOPA 20 mg/kg s.c. alone, summed 2-4 h
# Method: as §1, §2, §3
# [3] = L-DOPA 20 mg/kg s.c. alone, 2-4 h, mean±SEM, n=6
# [4] = L-DOPA 20 mg/kg s.c. alone, 2-4 h, p<0.001
# [5] = L-DOPA 20 mg/kg s.c. alone, 2-4 h, p<0.05
structure (smiles),measurement,setting,value
"N[C@@H](Cc1ccc(O)c(O)c1)C(=O)O [L-DOPA, 3,4-dihydroxyphenylalanine]","total activity counts, high activity time and counts compared to normal, unlesioned macaques","MPTP-lesioned macaques; L-DOPA p.o. (30 to 45 mg/kg), 1 to 3.5 hrs after administration",higher
same,"total activity counts, high activity time and high activity counts compared to normal macaques","MPTP-lesioned macaques; L-DOPA p.o. alone, between 2 and 3 h after L-DOPA",significantly higher
same,total activity counts,"MPTP-lesioned marmosets [1]; L-DOPA 20 mg/kg s.c. alone (vehicle p.o.), peak dose period 2-4 h, mean±SEM, n=6",2782±682 counts
same,high activity counts,MPTP-lesioned marmosets [1]; [3],2170±778 counts
same,high activity time,MPTP-lesioned marmosets [1]; [3],53.3 ± 15.2 min
same,"increase in high activity time compared to normal, non-MPTP-lesioned animals",MPTP-lesioned marmosets [1]; [4],167%
same,"increase in total activity compared to vehicle (s.c.)-treated, MPTP-lesioned animals",MPTP-lesioned marmosets [1]; [4],379%
same,"increase in high activity counts compared to normal, non-MPTP-lesioned animals",MPTP-lesioned marmosets [1]; [5],120%
same,"increase in total activity compared to non-treated, non-MPTP-lesioned (normal) animals",MPTP-lesioned marmosets [1]; [5],77%
same,period following drug administration in which total activity was significantly increased compared to vehicle (s.c.)-treated animals,"MPTP-lesioned marmosets [1]; L-DOPA 20 mg/kg s.c. alone, 6 h time course, 30 min intervals",3.5 h
same,psychosis score (median),"MPTP-lesioned marmosets [2]; IQR 0-0 as printed, n=6",0
same,dyskinesia score (median),"MPTP-lesioned marmosets [2]; IQR 10-29, n=6",20
same,parkinsonian disability score (median),"MPTP-lesioned marmosets [2]; maximum 432, IQR 57-111, n=6",80
